Measurements published in US9796733B2, “Imidazo-pyrazine derivatives useful as soluble guanylate cyclase activators” (Merck Sharp & Dohme Corp., priority 2014, dated 2017).

Biological target: T1, sGC α1/β1 heterodimer (Homo sapiens, UniProt Q02108+Q02153)
T1 construct: expressed in transfected cells; host or cells: CHO-K1 (clone #7, CHO-K1/sGC)
T1 sequence (Q02108 1-690): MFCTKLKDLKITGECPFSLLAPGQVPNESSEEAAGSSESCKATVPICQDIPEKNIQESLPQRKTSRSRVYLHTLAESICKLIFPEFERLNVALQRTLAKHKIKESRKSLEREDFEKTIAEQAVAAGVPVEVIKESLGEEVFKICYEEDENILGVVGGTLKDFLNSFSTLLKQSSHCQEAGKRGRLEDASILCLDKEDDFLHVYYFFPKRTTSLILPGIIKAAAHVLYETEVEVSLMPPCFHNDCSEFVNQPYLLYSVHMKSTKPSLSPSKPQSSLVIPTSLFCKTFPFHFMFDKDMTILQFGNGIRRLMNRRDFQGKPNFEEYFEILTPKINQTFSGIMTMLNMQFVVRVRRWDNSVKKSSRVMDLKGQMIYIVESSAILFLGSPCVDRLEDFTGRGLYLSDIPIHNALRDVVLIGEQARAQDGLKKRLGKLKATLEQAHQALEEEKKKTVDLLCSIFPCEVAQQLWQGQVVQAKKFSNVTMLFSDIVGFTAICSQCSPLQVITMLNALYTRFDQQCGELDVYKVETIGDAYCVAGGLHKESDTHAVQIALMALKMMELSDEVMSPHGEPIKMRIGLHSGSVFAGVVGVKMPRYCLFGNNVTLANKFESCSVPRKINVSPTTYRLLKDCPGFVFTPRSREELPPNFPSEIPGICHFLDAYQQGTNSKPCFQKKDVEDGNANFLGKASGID
T1 sequence (Q02153 1-619): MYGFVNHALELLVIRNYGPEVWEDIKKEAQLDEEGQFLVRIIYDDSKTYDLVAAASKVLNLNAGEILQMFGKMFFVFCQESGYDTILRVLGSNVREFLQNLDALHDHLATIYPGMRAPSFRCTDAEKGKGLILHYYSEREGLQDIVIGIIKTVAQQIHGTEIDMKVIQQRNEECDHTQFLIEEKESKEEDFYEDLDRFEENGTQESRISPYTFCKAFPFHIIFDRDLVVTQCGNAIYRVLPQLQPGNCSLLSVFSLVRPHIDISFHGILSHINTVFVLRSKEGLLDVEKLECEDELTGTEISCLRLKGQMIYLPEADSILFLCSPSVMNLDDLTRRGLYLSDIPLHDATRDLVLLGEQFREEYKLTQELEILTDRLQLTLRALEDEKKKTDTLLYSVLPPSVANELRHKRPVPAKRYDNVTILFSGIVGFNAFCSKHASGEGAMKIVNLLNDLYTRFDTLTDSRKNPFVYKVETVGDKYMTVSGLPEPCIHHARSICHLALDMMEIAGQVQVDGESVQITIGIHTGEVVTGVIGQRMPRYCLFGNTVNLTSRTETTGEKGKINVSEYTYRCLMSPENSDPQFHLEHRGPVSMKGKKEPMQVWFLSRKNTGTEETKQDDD
Experiment: Cell-based sGC functional assay (CASA assay): cGMP generation in CHO-K1/sGC cells, HTRF detection
Conditions: for Emax: CHO-K1, percent activation relative to standard Compound A in CHO-K1/sGC cells, read-out: % Act.; for EC50: inflection point (IP) of cGMP generation in CHO-K1/sGC cells, 4P fit, activity expressed as percentage of Compound A
Method in brief: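 Stable CHO-K1/sGC cells in EBSS buffer with 5 mM MgCl2, 0.05% BSA and 0.5 mM IBMX were incubated with compound (2.5% DMSO final) ±1 μM DETA-NO for 1 hr at 37° C. cGMP was measured by HTRF. Activation is expressed as % of reference HDA Compound A maximum, with IP and max fold induction from a 4P fit.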

Emax [%] | EC50 [nM] | SMILES
186 | 244 | Cc1nc(C2(C3CC3)C(=O)Nc3nc(-c4cn5ccnc5c(CCC(F)(F)C(F)(F)F)n4)nc(N)c32)ccc1F (single isomer, unassigned) [Example 363B, 4-amino-5-cyclopropyl-5-(5-fluoro-6-methylpyridin-2-yl)-2-(8-(3,3,4,4,4-pentafluorobutyl)imidazo[1,2-a]pyrazin-6-yl)-5H-pyrrolo[2,3-d]pyrimidin-6(7H)-one]
151 | 148 | Nc1nc(-c2cn3ccnc3c(CCCC(F)(F)F)n2)nc2c1C(c1cccc(C(F)(F)F)n1)(C1CC1)C(=O)N2 (single isomer, unassigned) [Example 368B, 4-amino-5-cyclopropyl-2-(8-(4,4,4-trifluorobutyl)imidazo[1,2-a]pyrazin-6-yl)-5-(6-(trifluoromethyl)pyridin-2-yl)-5H-pyrrolo[2,3-d]pyrimidin-6(7H)-one]
119 | 12 | CC1(c2ccc(Cl)cc2)C(=O)Nc2nc(-c3cn4ccnc4cn3)nc(NCC(F)(F)F)c21 (centres unmarked) [Example 288A, 5-(4-chlorophenyl)-2-(imidazo[1,2-a]pyrazin-6-yl)-5-methyl-4-((2,2,2-trifluoroethyl)amino)-5H-pyrrolo[2,3-d]pyrimidin-6(7H)-one]
204 | 85 | CCc1nc(C2(C)C(=O)Nc3nc(-c4cn5ccnc5c(CCC(F)(F)C(F)(F)F)n4)nc(N)c32)no1 (centres unmarked) [Example 320B, 4-amino-5-(5-ethyl-1,2,4-oxadiazol-3-yl)-5-methyl-2-(8-(3,3,4,4,4-pentafluorobutyl)imidazo[1,2-a]pyrazin-6-yl)-5H-pyrrolo[2,3-d]pyrimidin-6(7H)-one]
114 | 367 | CC1(C)C(=O)Nc2nc(-c3cn4ccnc4c(Cc4cccc(C#N)c4)n3)nc(N)c21 [Example 272, 3-((6-(4-Amino-5,5-dimethyl-6-oxo-6,7-dihydro-5H-pyrrolo[2,3-d]pyrimidin-2-yl)imidazo[1,2-a]pyrazin-8-yl)methyl)benzonitrile]
69 | 58 | CC1(c2ccc(Cl)cc2)C(=O)Nc2nc(-c3cn4ccnc4cn3)nc(N3CCC(C(F)(F)F)C3)c21 (racemic) [Example 279A, 5-(4-chlorophenyl)-2-(imidazo[1,2-a]pyrazin-6-yl)-5-methyl-4-(3-(trifluoromethyl)pyrrolidin-1-yl)-5H-pyrrolo[2,3-d]pyrimidin-6(7H)-one]

The next lines start with the compound.

SMILES | Emax [%] | EC50 [nM]
CC1(C)C(=O)Nc2nc(-c3cn4c(Br)cnc4c(CCC(F)(F)C(F)(F)F)n3)nc(N)c21 [Example 263, 4-amino-2-(3-bromo-8-(3,3,4,4,4-pentafluorobutyl)imidazo[1,2-a]pyrazin-6-yl)-5,5-dimethyl-5H-pyrrolo[2,3-d]pyrimidin-6(7H)-one] | 20 | 314
CCC1(CC)C(=O)Nc2nc(-c3cn4ccnc4c(Cc4ccccc4)n3)nc(N)c21 [Example 79, 4-amino-2-(8-benzylimidazo[1,2-a]pyrazin-6-yl)-5,5-diethyl-5H-pyrrolo[2,3-d]pyrimidin-6(7H)-one] | 112 | 36
CC1(c2ccc(F)cc2F)C(=O)Nc2nc(-c3cn4ccnc4c(CCC(F)(F)F)n3)nc(N)c21 (centres unmarked) [Example 180A, 4-amino-5-(2,4-difluorophenyl)-5-methyl-2-(8-(3,3,3-trifluoropropyl)imidazo[1,2-a]pyrazin-6-yl)-5H-pyrrolo[2,3-d]pyrimidin-6(7H)-one] | 115 | 39
CC1(C2CC2)C(=O)Nc2nc(-c3cn4ccnc4c(Cc4ccccc4)n3)nc(N)c21 (centres unmarked) [Example 82A, 4-amino-2-(8-benzylimidazo[1,2-a]pyrazin-6-yl)-5-cyclopropyl-5-methyl-5H-pyrrolo[2,3-d]pyrimidin-6(7H)-one] | 120 | 90
Cc1nnc(C2(C)C(=O)Nc3nc(-c4cn5ccnc5c(CCC(F)(F)C(F)(F)F)n4)nc(N)c32)o1 (centres unmarked) [Example 57A, 4-amino-5-methyl-5-(5-methyl-1,3,4-oxadiazol-2-yl)-2-(8-(3,3,4,4,4-pentafluorobutyl)imidazo[1,2-a]pyrazin-6-yl)-5H-pyrrolo[2,3-d]pyrimidin-6(7H)-one] | 101 | 920
Cc1cnc2c(Cc3ccc(F)cc3)nc(-c3nc(N)c4c(n3)NC(=O)C4(C)c3ccc(F)cn3)cn12 (centres unmarked) [Example 163B, 4-amino-2-(8-(4-fluorobenzyl)-3-methylimidazo[1,2-a]pyrazin-6-yl)-5-(5-fluoropyridin-2-yl)-5-methyl-5H-pyrrolo[2,3-d]pyrimidin-6(7H)-one] | 84 | 230
CCC(CC)Cc1nc(-c2nc(N)c3c(n2)NC(=O)C3(C)c2ccc(F)cc2)cn2ccnc12 (centres unmarked) [Example 13A, 4-amino-2-(8-(2-ethylbutyl)imidazo[1,2-a]pyrazin-6-yl)-5-(4-fluorophenyl)-5-methyl-5H-pyrrolo[2,3-d]pyrimidin-6(7H)-one] | 114 | 42
CC1(c2ccc(Cl)cc2)C(=O)Nc2nc(-c3cn4ccnc4c(Cc4ccc(F)c(F)c4)n3)nc(N)c21 (centres unmarked) [Example 97A, 4-amino-5-(4-chlorophenyl)-2-(8-(3,4-difluorobenzyl)imidazo[1,2-a]pyrazin-6-yl)-5-methyl-5H-pyrrolo[2,3-d]pyrimidin-6(7H)-one] | 145 | 5
CC1(c2ccc(Cl)cc2)C(=O)Nc2nc(-c3cn4ccnc4c(CCCC(F)(F)F)n3)nc(N)c21 (centres unmarked) [Example 206A, 4-amino-5-(4-chlorophenyl)-5-methyl-2-(8-(4,4,4-trifluorobutyl)imidazo[1,2-a]pyrazin-6-yl)-5H-pyrrolo[2,3-d]pyrimidin-6(7H)-one] | 116 | 21
CCC1(C)C(=O)Nc2nc(-c3cn4ccnc4c(Cc4ccccc4)n3)nc(N)c21 (single isomer, unassigned) [Example 84B, 4-amino-2-(8-benzylimidazo[1,2-a]pyrazin-6-yl)-5-ethyl-5-methyl-5H-pyrrolo[2,3-d]pyrimidin-6(7H)-one] | 100 | 180
C#CC1(C)C(=O)Nc2nc(-c3cn4ccnc4c(CCC(F)(F)C(F)(F)F)n3)nc(N)c21 (centres unmarked) [Example 66A, 4-amino-5-ethynyl-5-methyl-2-(8-(3,3,4,4,4-pentafluorobutyl)imidazo[1,2-a]pyrazin-6-yl)-5H-pyrrolo[2,3-d]pyrimidin-6(7H)-one] | 127 | 252
CCc1cn2cc(-c3nc(N)c4c(n3)NC(=O)C4(C)c3ccccc3)nc(CCC(F)(F)C(F)(F)F)c2n1 (centres unmarked) [Example 160B, 4-amino-2-(2-ethyl-8-(3,3,4,4,4-pentafluorobutyl)imidazo [1,2-a]pyrazin-6-yl)-5-methyl-5-phenyl-5H-pyrrolo[2,3-d]pyrimidin-6(7H)-one] | 102 | 978
CC1(C(=O)NC2CC2)C(=O)Nc2nc(-c3cn4cc(C(F)(F)F)nc4c(Cc4ccccc4F)n3)nc(N)c21 (centres unmarked) [Example 47B, 4-amino-N-cyclopropyl-2-(8-(2-fluorobenzyl)-2-(trifluoromethyl)imidazo[1,2-a]pyrazin-6-yl)-5-methyl-6-oxo-6,7-dihydro-5H-pyrrolo[2,3-d]pyrimidine-5-carboxamide] | 118 | 735
